From patent publication US8435978B2, “Substituted sulfonamide compounds” (Gruenenthal GmbH, priority 2006, dated 2013) come the findings set out here.

As a reminder, the inhibition is the drop in the measured response relative to a control, in per cent.

The structures appear in SMILES notation.

One test has as its target T1, human B1R receptor (Homo sapiens, UniProt P46663).
T1 construct: host or cells: CHO K1 cells (Chinese hamster ovary), stably transfected
T1 sequence (P46663 1-353): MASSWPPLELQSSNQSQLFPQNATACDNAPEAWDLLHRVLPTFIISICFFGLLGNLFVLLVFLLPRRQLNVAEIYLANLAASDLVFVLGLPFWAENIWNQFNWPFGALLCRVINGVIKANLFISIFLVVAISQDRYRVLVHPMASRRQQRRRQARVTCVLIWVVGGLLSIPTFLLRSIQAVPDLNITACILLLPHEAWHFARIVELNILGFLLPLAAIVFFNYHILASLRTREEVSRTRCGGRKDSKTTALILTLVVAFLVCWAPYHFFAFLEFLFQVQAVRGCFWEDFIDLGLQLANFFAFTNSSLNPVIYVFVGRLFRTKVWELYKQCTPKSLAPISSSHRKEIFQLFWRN
Nature of the test: Functional study on the bradykinin receptor 1 (B1R), FLIPR Ca2+ assay, hB1R cells. The format is cell-based. As to conditions: agonist Lys-Des-Arg9-bradykinin 0.5 nM, % inhibition compared with the maximum achievable inhibition; for inhibition at 10 µM: CHO-K1, test substance 10 μM, read-out: B1R Antagonism, human [10 μM] % Inhibition. The method, boiled down:
(§1)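 CHO K1 cells stably expressing human or rat B1R were loaded with Fluo-4 and read on a FLIPR (ex 488/em 540 nm, peak fluorescence). Test compounds at 10 μM were added first, then after 10 min agonist: Lys-Des-Arg9-bradykinin 0.5 nM for hB1R, Des-Arg9-bradykinin 100 nM for rB1R; % inhibition versus maximum inhibition.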

For another test, the target named is T2, B1R receptor of the rat (Rattus norvegicus, UniProt P97583).
T2 construct: host or cells: CHO K1 cells (Chinese hamster ovary), stably transfected
T2 sequence (P97583 1-337): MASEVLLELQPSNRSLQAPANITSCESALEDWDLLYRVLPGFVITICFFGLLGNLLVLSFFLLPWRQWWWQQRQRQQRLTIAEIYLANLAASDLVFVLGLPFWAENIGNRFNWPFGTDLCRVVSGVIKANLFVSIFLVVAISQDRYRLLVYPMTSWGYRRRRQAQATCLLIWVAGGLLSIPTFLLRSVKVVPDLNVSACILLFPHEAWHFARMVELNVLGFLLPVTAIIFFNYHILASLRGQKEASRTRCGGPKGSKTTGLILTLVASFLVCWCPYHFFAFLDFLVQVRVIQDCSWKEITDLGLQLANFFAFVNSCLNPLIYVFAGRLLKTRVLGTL
Nature of the test: Functional study on the bradykinin receptor 1 (B1R), FLIPR Ca2+ assay, rB1R cells. As to conditions: agonist Des-Arg9-bradykinin 100 nM, % inhibition compared with the maximum achievable inhibition; for inhibition at 10 µM: CHO-K1, test substance 10 μM, read-out: B1R Antagonism, rat [10 μM] % Inhibition. In kind it is cell-based. The procedure, abridged:
as §1

Consider `Cc1ccc(N2CCN(C(=O)COCC3CCCN3S(=O)(=O)c3c(Cl)cccc3Cl)CC2)cc1C` (stereo not shown) [Example 355, 2-((1-(2,6-dichlorophenylsulfonyl)pyrrolidin-2-yl)methoxy)-1-(4-(3,4-dimethylphenyl)piperazin-1-yl)ethanone], for which the results for the inhibition at 10 µM on human B1R receptor and at B1R receptor of the rat were 83.4% and 102%, respectively.
The matching figures for `O=C(COCC1CCCN1S(=O)(=O)c1c(Cl)cccc1Cl)N1CCN(c2ccc(Cl)c(Cl)c2)CC1` (stereo not shown) [Example 356, 1-(4-(3,4-dichlorophenyl)piperazin-1-yl)-2-((1-(2,6-dichlorophenylsulfonyl)pyrrolidin-2-yl)methoxy)ethanone]: 43% and 103%.
The matching figures for `O=C(COCC1CCCN1S(=O)(=O)c1c(Cl)cccc1Cl)N1CCN(Cc2ccc(Cl)c(Cl)c2)CC1` (stereo not shown) [Example 357, 1-(4-(3,4-dichlorobenzyl)piperazin-1-yl)-2-((1-(2,6-dichlorophenylsulfonyl)pyrrolidin-2-yl)methoxy)ethanone]: 79.4% and 104%.
The matching figures for `O=C(COCC1CCCN1S(=O)(=O)c1c(Cl)cccc1Cl)N1CCN(Cc2ccc(Br)cc2)CC1` (stereo not shown) [Example 358, 1-(4-(4-bromobenzyl)piperazin-1-yl)-2-((1-(2,6-dichlorophenylsulfonyl)pyrrolidin-2-yl)methoxy)ethanone]: 101% and 103%.
Take `O=C(COCC1CCCN1S(=O)(=O)c1c(Cl)cccc1Cl)N1CCN(Cc2ccc(Cl)cc2)CC1` (stereo not shown) [Example 359, 1-(4-(4-chlorobenzyl)piperazin-1-yl)-2-((1-(2,6-dichlorophenylsulfonyl)pyrrolidin-2-yl)methoxy)ethanone]: the inhibition at 10 µM on human B1R receptor stood at 98.6%; at B1R receptor of the rat, 103%.
The matching figures for `Cc1ccc(CN2CCN(C(=O)COCC3CCCN3S(=O)(=O)c3c(Cl)cccc3Cl)CC2)cc1` (stereo not shown) [Example 360, 2-((1-(2,6-dichlorophenylsulfonyl)pyrrolidin-2-yl)methoxy)-1-(4-(4-methylbenzyl)piperazin-1-yl)ethanone]: 96.7% and 103%.
Regarding `COc1cc(C)c(S(=O)(=O)N2CCCCC2COCC(=O)N(CCN(C)C)Cc2ccccc2)c(C)c1` (stereo not shown) [Example 361, N-benzyl-N-(2-(dimethylamino)ethyl)-2-((1-(4-methoxy-2,6-dimethylphenylsulfonyl)piperidin-2-yl)methoxy)acetamide], the inhibition at 10 µM turned out to be 93.4% on human B1R receptor and 101% at B1R receptor of the rat.
The matching figures for `COc1cc(C)c(S(=O)(=O)N2CCCCC2COCC(=O)N2CCCN(Cc3ccccc3)CC2)c(C)c1` (stereo not shown) [Example 362, 1-(4-benzyl-1,4-diazepan-1-yl)-2-((1-(4-methoxy-2,6-dimethylphenylsulfonyl)piperidin-2-yl)methoxy)ethanone]: 103% and 102%.
With `COc1cc(C)c(S(=O)(=O)N2CCCCC2COCC(=O)N2CC[C@@H](N(C)C)C2)c(C)c1` (stereo partly drawn) [Example 363, 1-((R)-3-(dimethylamino)pyrrolidin-1-yl)-2-((1-(4-methoxy-2,6-dimethylphenylsulfonyl)piperidin-2-yl)methoxy)ethanone], the inhibition at 10 µM at human B1R receptor was determined as 90.7%; at B1R receptor of the rat, 101%.
The matching figures for `COc1cc(C)c(S(=O)(=O)N2CCCCC2COCC(=O)N(C)[C@H]2CCN(Cc3ccccc3)C2)c(C)c1` (stereo partly drawn) [Example 364, N—((S)-1-benzylpyrrolidin-3-yl)-2-((1-(4-methoxy-2,6-dimethylphenylsulfonyl)piperidin-2-yl)methoxy)-N-methylacetamide]: 105% and 101%.
As for `COc1cc(C)c(S(=O)(=O)N2CCCCC2COCC(=O)NC2CCN(Cc3ccccc3)C2)c(C)c1` (stereo not shown) [Example 365, N-(1-benzylpyrrolidin-3-yl)-2-((1-(4-methoxy-2,6-dimethylphenylsulfonyl)piperidin-2-yl)methoxy)acetamide], the inhibition at 10 µM at human B1R receptor was determined as 55.6%; on B1R receptor of the rat, 99.8%.
With `COc1cc(C)c(S(=O)(=O)N2CCCCC2COCC(=O)NCCCn2ccnc2)c(C)c1` (stereo not shown) [Example 366, N-(3-(1H-imidazol-1-yl)propyl)-2-((1-(4-methoxy-2,6-dimethylphenylsulfonyl)piperidin-2-yl)methoxy)acetamide], the inhibition at 10 µM is 14.8% at human B1R receptor and 99% on B1R receptor of the rat.
`COc1cc(C)c(S(=O)(=O)N2CCCCC2COCC(=O)N(Cc2ccc(N(C)C)cc2)C(C)C)c(C)c1` (stereo not shown) [Example 367, N-(4-(dimethylamino)benzyl)-N-isopropyl-2-((1-(4-methoxy-2,6-dimethylphenylsulfonyl)piperidin-2-yl)methoxy)acetamide]: the inhibition at 10 µM came out at 20.1% on human B1R receptor and 103% at B1R receptor of the rat.
As for `COc1cc(C)c(S(=O)(=O)N2CCCCC2COCC(=O)N(C)C(CN2CCOCC2)c2ccccc2)c(C)c1` (stereo not shown) [Example 368, 2-((1-(4-methoxy-2,6-dimethylphenylsulfonyl)piperidin-2-yl)methoxy)-N-methyl-N-(2-morpholino-1-phenylethyl)acetamide], the inhibition at 10 µM is 62.1% on human B1R receptor and 101% at B1R receptor of the rat.
Take `COc1cc(C)c(S(=O)(=O)N2CCCCC2COCC(=O)N2CCN(c3ccccn3)CC2)c(C)c1` (stereo not shown) [Example 369, 2-((1-(4-methoxy-2,6-dimethylphenylsulfonyl)piperidin-2-yl)methoxy)-1-(4-(pyridin-2-yl)piperazin-1-yl)ethanone]: the inhibition at 10 µM on human B1R receptor came to 82.3%; on B1R receptor of the rat, 101%.
The matching figures for `COc1cc(C)c(S(=O)(=O)N2CCCCC2COCC(=O)Nc2nccc3ccccc23)c(C)c1` (stereo not shown) [Example 370, N-(isoquinolin-1-yl)-2-((1-(4-methoxy-2,6-dimethylphenylsulfonyl)piperidin-2-yl)methoxy)acetamide]: 18.7% and 98.8%.
The matching figures for `COc1cc(C)c(S(=O)(=O)N2CCCCC2COCC(=O)Nc2nc3ccccc3n2C)c(C)c1` (stereo not shown) [Example 371, 2-((1-(4-methoxy-2,6-dimethylphenylsulfonyl)piperidin-2-yl)methoxy)-N-(1-methyl-1H-benzo[d]imidazol-2-yl)acetamide]: 0.38% and 101%.
Take `COc1cc(C)c(S(=O)(=O)N2CCCCC2COCC(=O)Nc2ccncn2)c(C)c1` (stereo not shown) [Example 372, 2-((1-(4-methoxy-2,6-dimethylphenylsulfonyl)piperidin-2-yl)methoxy)-N-(pyrimidin-4-yl)acetamide]: the inhibition at 10 µM at human B1R receptor is -2.76%; at B1R receptor of the rat, 83.8%.
The matching figures for `COc1cc(C)c(S(=O)(=O)N2CCCCC2COCC(=O)N2CCN(CCc3ccccc3)CC2)c(C)c1` (stereo not shown) [Example 373, 2-((1-(4-methoxy-2,6-dimethylphenylsulfonyl)piperidin-2-yl)methoxy)-1-(4-phenethylpiperazin-1-yl)ethanone]: 104% and 98.8%.
The matching figures for `COc1cc(C)c(S(=O)(=O)N2CCCCC2COCC(=O)N2CCC[C@H]2CN2CCCC2)c(C)c1` (stereo partly drawn) [Example 374, 2-((1-(4-methoxy-2,6-dimethylphenylsulfonyl)piperidin-2-yl)methoxy)-1-((S)-2-(pyrrolidin-1-ylmethyl)pyrrolidin-1-yl)ethanone]: 80.8% and 102%.
For `COc1cc(C)c(S(=O)(=O)N2CCCCC2COCC(=O)N2CCCN(C)CC2)c(C)c1` (stereo not shown) [Example 375, 2-((1-(4-methoxy-2,6-dimethylphenylsulfonyl)piperidin-2-yl)methoxy)-1-(4-methyl-1,4-diazepan-1-yl)ethanone], the figures for the inhibition at 10 µM at human B1R receptor and at B1R receptor of the rat were 98.7% and 99.8%, respectively.
The matching figures for `COc1cc(C)c(S(=O)(=O)N2CCCCC2COCC(=O)N2CCN(c3ncc(C(F)(F)F)cc3Cl)CC2)c(C)c1` (stereo not shown) [Example 376, 1-(4-(3-chloro-5-(trifluoromethyl)pyridin-2-yl)piperazin-1-yl)-2-((1-(4-methoxy-2,6-dimethylphenylsulfonyl)piperidin-2-yl)methoxy)ethanone]: 67.1% and 99%.
As to `COc1cc(C)c(S(=O)(=O)N2CCCCC2COCC(=O)N(CCN(C)C)Cc2ccccc2)c(C)c1` (stereo not shown) [Example 377], the “B1R Antagonism, human [10 μM] % Inhibition” value at human B1R receptor (test substance 10 μM, hB1R CHO K1 cells) amounted to 87.21%. Also, the “B1R Antagonism, rat [10 μM] % Inhibition” value on B1R receptor of the rat (test substance 10 μM, rB1R CHO K1 cells) is recorded as 99.56%.
